According to patent US20040171015A1, “Cyp450-specific dna probes and primers, and biological applications thereof” (priority 2003, published 2004):
Where two headings read alike, the source gives them in different places.

What was measured:
CYP 3A4 = test system: CYP 3A4
Description: (§1) 600 microliters of solution D (pH7; guanadium thiocyanate 4M; sodium citrate 25 mM; sarcosyl 0.5%; and 1.4 ml of beta-mercaptoethanol per 200 ml of solution D) have been added to each well so as to induce cell lysis. […] Are then successively added: 0.1 volume of sodium acetate (2M, pH4), 1 volume of water-saturated phenol and 0.2 volume of chloroform/isoamylalcohol (49/1, V/V). At each step, the suspension is vigorously vortexed, then left to cool on ice for 15-20 min, and centrifigated for 30 min at 4000 g and 4° C. An equal volume of isopropanol is added after removal of the aqueous phase.
(§2) RNA are then precipitated (1 hour at −20° C.) and centrifuged for 30 min at 4000 g and 4° C. The supernatant is removed and the pellets are re-suspended in 2.7 ml of solution D. 2.7 ml of isopropanol are then added to the suspension, and the RNA are again precipitated (1 hour at −20° C.) and centrifugated. The pellets are washed with 5.4 ml of 70% ethanol. After a final centrifugation and removal of the supernatant, the pellets are air-dried, and re-suspended in sterile water containing DEPC (DEPC 1/1000 in water, then sterilization). Total RNA contents are measured on a UV spectrophotometer.
(§3) 25 micrograms of total RNA have been placed into contact with oligo-dT (0.4 mM final of an equimolar composition of oligod(T) and of three oligosd(T) which have an A or a G or a C in 3′), and heated to 70° C. for 10 min, then incubated for 5 min on ice so as to allow oligo-dT hybridization on polyA RNA.
(§4) The labeled cDNA are then hybridized with the filters (48 hours at 42° C.). […] Filters have then been washed with SSC 2× buffer without SDS for 30 min at 42° C., and exposed overnight in a phosphorimager cassette.
(§5) For comparison purposes, Northern blots comprising 10 micrograms of total RNA have been incubated for hybridization with each cDNA probe separately. Quantifications are achieved by measuring band intensities per 18S quantity (as evaluated by ethidium bromide coloration).

CYP 1A2 = experiment: membrane (slot blot) and Northern blot assay of CYP450 mRNA in treated human hepatocytes; format: cell-based; settings: 48 hours exposure, 3-MC 5 microM
Description: (§6) Total RNA contents are measured on a UV spectrophotometer.
(§7) The labeled cDNA thus produced are then purified.

CYP 1A1 = experiment: as above; format: cell-based; settings: 48 hours exposure, 3-MC 5 microM
Description: as §6, §7

CYP450 = settings: known inducers used for validation; cited from earlier work
CYP 14 sub-family = settings: human hepatocytes, 48 hours exposure; PB 1 microM, RIF 50 microM
Description: RNA are then precipitated (1 hour at −20° C.) and centrifuged for 30 min at 4000 g and 4° C. The supernatant is removed and the pellets are re-suspended in 2.7 ml of solution D. 2.7 ml of isopropanol are then added to the suspension, and the RNA are again precipitated (1 hour at −20° C.) and centrifugated. The pellets are washed with 5.4 ml of 70% ethanol. After a final centrifugation and removal of the supernatant, the pellets are air-dried, and re-suspended in sterile water containing DEPC (DEPC 1/1000 in water, then sterilization). Total RNA contents are measured on a UV spectrophotometer. […]

CYP 3A7 = settings: hepatocytes
Description: as §1, §2, §3, §4, §5

CYP 3A5 = settings: hepatocytes
Description: as §1, §2, §3, §4, §5

CYP450 isoforms = experiment: specificity assays of the cDNA probes (hybridization on filters and Northern blot); format: binding, human; settings: 32P-labeled probe, filters with plasmidic DNA / 3′-NTR, Northern blot of total RNA
Description: On nylon® membrane filters, the following DNA sequences were deposited:
either the sequences obtained by amplification of 50 nanograms of plasmidic DNA as described in the above example 1, followed by purification and UV spectrophotometry dosage (Power Wave X2, Biotek instruments®, St Quentin en Yvelines, France),
or plasmidic DNA (50 nanograms of linearized plasmid containing a probe inserted therein, or of empty pUC plasmid) obtained from the clones described in the above example 1 after linearization by Bam H1 (20 IU for 20 micrograms of plasmidic DNA, 1 hour at 37° C.).
The amplified sequences as well as the plasmidic ones were denatured by EDTA (final concentration of 10 mM, 10 min at 65° C.) and then by NaOH (final concentration of 0.1 M, 30 min at ambient temperature), and neutralized by SSC6× buffer, before being deposited onto a nylon® membrane (Biosupport®, Pall, Portsmouth, UK). Binding to the membrane was achieved by exposure to UV for 4 min and heating at 80° C. for 2 hours.
Three types of specificity assays have been performed:
intra-probe specificity: each cDNA probe (SEQ ID NO: 1-14) has been labeled with ^32P following Megaprime® DNA Labelling System (Amersham Pharmacia Biotech, Elancourt, France) and according to random primer polymerization. […]

In the case of `Cc1ccc2cc3c(ccc4ccccc43)c3c2c1CC3` [3-methylcholanthrene], the “change in CYP 3A4 (hybridization signal of reverse-transcribed total RNA)” value (CYP 3A4; human hepatocytes, 48 hours exposure, 3-MC 5 microM, PB 1 microM, RIF 50 microM) is reported as “decrease”, the “change in CYP 1A2 (hybridization signal of reverse-transcribed total RNA)” value (CYP 1A2) is reported as “also but more weakly” and the “change in CYP 1A1 (hybridization signal of reverse-transcribed total RNA)” value (CYP 1A1) is reported as “increase”. For the same molecule, the CYP450 induced (CYP450) was “CYP 1A”.

In the case of `CCC1(c2ccccc2)C(=O)NC(=O)NC1=O` [phenobarbital, Phenobarbital], the “variation of CYP 14 sub-family (hybridization signal)” value (CYP 14 sub-family) is reported as “no variation”, the “variation of CYP 3A7 (hybridization signal)” value (CYP 3A7) is reported as “no variation” and the “change in CYP 3A4 (hybridization signal of reverse-transcribed total RNA)” value (CYP 3A4; hepatocytes) is reported as “strong decrease”. The “variation of CYP 3A5 (hybridization signal)” value (CYP 3A5) was “no variation” and the CYP450 induced (CYP450) was “CYP 3A”.

B1: SEQ ID NO: 9: DNA molecule which hybridizes to CYP 2C19 (nucleic acid, listed as Homo sapiens)
DNA: TTTCACTATCTGTGATGCTTCTTCTGACCCGTCATCTCACATTTTCCCTTCCCCCAAGATCTAGTGAACATTCAGCCTCCATTAAAAAAGTTTCACTGTGCAAATATATCTGCTATTCCCCATACTCTATAATAGTTACATTGAGT
With B1 the “hybridization specificity of the probe (cross-hybridization with other CYP450 isoforms, empty plasmid, other RNA from human hepatocytes, 3′-NTR)” value (CYP450 isoforms) was “may hybridize in the 3′-NTR region of CYP 2C9”.

B2: SEQ ID NO: 8: DNA molecule which hybridizes to CYP 2C9 (nucleic acid, listed as Homo sapiens)
DNA: TTTGTGTATTATAATTCAAAGGCATTTCTTTTCTGCATGTTCTAAATAAAAAGCATTATTATTTGCTG
modifications: DNA, backbone and methylation of C not given here
notes: DNA molecule which hybridizes to CYP 2C9
With B2 the “hybridization specificity of the probe (cross-hybridization with other CYP450 isoforms, empty plasmid, other RNA from human hepatocytes, 3′-NTR)” value (CYP450 isoforms) was “only hybridizes to its CYP 2C9 target”.
